From patent publication US4789736A, “Complexes of technetium-99m with propylene amine oximes” (Amersham International plc, priority 1985, dated 1988)

Experiment: Animal biodistribution of Tc-99m complexes of ligands, no separation of stereoisomers (Example 22)
Assay type: in vivo, rats
Conditions: i.v. rats
Method: The ratio of diastereoisomers in the Tc-99m complexes used in this experiment is not known.
The results at 2 minutes and 1 hour p.i. are the mean of 3 animals.
The results at 2 hours p.i. are the mean of 2 animals.

| % id/organ, Blood (2 min pi, mean of 3 animals) | % id/organ, Brain (2 min pi, mean of 3 animals) | % id/organ, Liver (2 min pi, mean of 3 animals) | % id/organ, Blood (1 hr pi, mean of 3 animals) | % id/organ, Brain (1 hr pi, mean of 3 animals) | % id/organ, Liver (1 hr pi, mean of 3 animals) | % id/organ, Heart (2 min pi, mean of 3 animals) | % id/organ, Blood (2 hr pi, mean of 2 animals) | % id/organ, Brain (2 hr pi, mean of 2 animals) | % id/organ, Heart (2 hr pi, mean of 2 animals) | % id/organ, Liver (2 hr pi, mean of 2 animals) | % id/organ, Heart (1 hr pi, mean of 3 animals) | SMILES |
| --- | --- | --- | --- | --- | --- | --- | --- | --- | --- | --- | --- | --- |
| 10.5 % id/organ | 0.8 % id/organ | 18.0 % id/organ | 2.8 % id/organ | 0.6 % id/organ | 12.1 % id/organ |  |  |  |  |  |  | CCCC(=NO)C(C)NCCCNC(C)C(CCC)=NO (stereo not shown) [Compound 5, 6,10-Diaza-5,11-dimethylpentadecane-4,12-dione bis oxime] |
| 5.8 % id/organ | 1.2 % id/organ | 19.6 % id/organ |  |  |  | 0.4 % id/organ | 2.6 % id/organ | 0.4 % id/organ | 0.2 % id/organ | 13.5 % id/organ |  | CCC(=NO)C(C)NCC(C)(C)CNC(C)C(CC)=NO (stereo not shown) [Compound 6, 5,9-Diaza-4,7,7,10-tetramethyltridecane-3,11-dione bis oxime] |
| 7.4 % id/organ | 1.0 % id/organ | 20.6 % id/organ | 3.3 % id/organ | 0.5 % id/organ | 36.5 % id/organ |  |  |  |  |  |  | CCC(CC)(CNC(C)C(C)=NO)CNC(C)C(C)=NO (stereo not shown) [Compound 7, 4,8-Diaza-6,6-diethyl-3,9-dimethylundecane-2,10-dione bis oxime] |
| 14.0 % id/organ | 0.4 % id/organ | 32.9 % id/organ |  |  |  | 0.5 % id/organ | 2.7 % id/organ | 0.6 % id/organ | 0.3 % id/organ | 16.9 % id/organ |  | CC(=NO)C(NCCCNC(C(C)=NO)c1ccccc1)c1ccccc1 (stereo not shown) [Compound 10, 4,8-Diaza-3,9-diphenylundecane-2,10-dione bis oxime] |
| 8.6 % id/organ | 1.0 % id/organ | 23.9 % id/organ | 6.0 % id/organ | 0.9 % id/organ | 19.7 % id/organ | 0.5 % id/organ |  |  |  |  | 0.3 % id/organ | CC(=NO)C(C)NC(C)CC(C)NC(C)C(C)=NO (stereo not shown) [Compound 12, 4,8-Diaza-3,5,7,9-tetramethylundecane-2,10 bis oxime] |
| 15.2 % id/organ | 0.5 % id/organ | 15.9 % id/organ | 7.2 % id/organ | 0.2 % id/organ | 12.5 % id/organ | 0.6 % id/organ |  |  |  |  | 0.2 % id/organ | CC(C)C(=NO)C(C)NCCCNC(C)C(=NO)C(C)C (stereo not shown) [Compound 13, 5,9-Diaza-2,4,10,12-tetramethyltridecane-3,11-dione bis oxime] |

| SMILES | % id/organ, Blood (2 min pi, mean of 3 animals) | % id/organ, Brain (2 min pi, mean of 3 animals) | % id/organ, Liver (2 min pi, mean of 3 animals) | % id/organ, Blood (1 hr pi, mean of 3 animals) | % id/organ, Brain (1 hr pi, mean of 3 animals) | % id/organ, Liver (1 hr pi, mean of 3 animals) | % id/organ, Heart (2 min pi, mean of 3 animals) | % id/organ, Blood (2 hr pi, mean of 2 animals) | % id/organ, Brain (2 hr pi, mean of 2 animals) | % id/organ, Heart (2 hr pi, mean of 2 animals) | % id/organ, Liver (2 hr pi, mean of 2 animals) | % id/organ, Heart (1 hr pi, mean of 3 animals) |
| --- | --- | --- | --- | --- | --- | --- | --- | --- | --- | --- | --- | --- |
| CC(=NO)C(C)NCC(C)CNC(C)C(C)=NO (stereo not shown) [Compound 11, 4,8-Diaza-3,6,9-trimethylundecane-2,10-dione bis oxime] | 11.9 % id/organ | 1.3 % id/organ | 12.3 % id/organ | 4.7 % id/organ | 1.0 % id/organ | 10.2 % id/organ | 0.8 % id/organ |  |  |  |  | 0.4 % id/organ |
